Laboratory results: patent publication US9850256B2, “Antibacterial basic biaromatic derivatives with aminoalkoxy substitution” (priority 2014, dated 2017)
In brackets after ≈: the same amount, converted by molar mass.

How the values were obtained:
Assay in all cases: Bacterial growth minimal inhibitory concentration (microdilution, cation-adjusted Mueller-Hinton Broth)
[1] = tested on: K. pneumoniae T6474; format: cell-based, Klebsiella pneumoniae; settings: Klebsiella pneumoniae, T6474; multiply-resistant strain (penicillin-, cephalosporin- and quinolone-resistant)
In short: (§1)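 Broth microdilution in cation-adjusted Mueller-Hinton Broth per CLSI M7-A7; MICs in mg/L. S. aureus A798 is methicillin- and quinolone-resistant, K. pneumoniae T6474 penicillin-, cephalosporin- and quinolone-resistant; E. coli ATCC25922 and P. aeruginosa ATCC 27853 are quinolone-sensitive.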

[2] = tested on: E. coli ATCC25922; format: cell-based; settings: Escherichia coli, ATCC25922; quinolone-sensitive strain
In short: as §1

[3] = tested on: P. aeruginosa ATCC 27853; format: cell-based, Pseudomonas aeruginosa; settings: Pseudomonas aeruginosa, ATCC27853; quinolone-sensitive strain
In short: as §1

[4] = tested on: S. aureus A798; format: cell-based, Staphylococcus aureus; settings: Staphylococcus aureus, A798; multiply-resistant strain (methicillin- and quinolone-resistant)
In short: as §1

| Compound | MIC [1] | MIC [2] | MIC [3] | MIC [4] |
| --- | --- | --- | --- | --- |
| NCCOc1cccc(-c2cccc(CNCC[C@@H]3CN(c4ccc5c(c4)NC(=O)CS5)C(=O)O3)c2)n1 [Example 22, 6-[(R)-5-(2-{3-[6-(2-amino-ethoxy)-pyridin-2-yl]-benzylamino}-ethyl)-2-oxo-oxazolidin-3-yl]-4H-benzo[1,4]thiazin-3-one] | 2 µg/mL (≈ 3.85 µM) | 0.5 µg/mL (≈ 0.962 µM) | 0.5 µg/mL (≈ 0.962 µM) | 0.5 µg/mL (≈ 0.962 µM) |
| NCCNCCOc1cccc(-c2cccc(CNCC[C@H]3CN(c4ccc5c(n4)NC(=O)CO5)C(=O)O3)c2)n1 [Example $156, 6-{(S)-5-[2-(3-{6-[2-(2-amino-ethylamino)-ethoxy]-pyridin-2-yl}-benzylamino)-ethyl]-2-oxo-oxazolidin-3-yl}-4H-pyrido[3,2-b][1,4]oxazin-3-one] | 2 µg/mL (≈ 3.65 µM) | 1 µg/mL (≈ 1.83 µM) | 0.5 µg/mL (≈ 0.913 µM) | 1 µg/mL (≈ 1.83 µM) |
| O=C1COc2ccc(N3C[C@H](CCNCc4cccc(-c5cc(OC6CNC6)cnn5)c4)OC3=O)nc2N1 [Example $114, 6-[(S)-5-(2-{3-[5-(azetidin-3-yloxy)-pyridazin-3-yl]-benzylamino}-ethyl)-2-oxo-oxazolidin-3-yl]-4H-pyrido[3,2-b][1,4]oxazin-3-one] | 8 µg/mL (≈ 15.5 µM) | 4 µg/mL (≈ 7.73 µM) | 1 µg/mL (≈ 1.93 µM) | 16 µg/mL (≈ 30.9 µM) |
| CN1CCC[C@@H]1COc1cccc(-c2cccc(CNCC[C@H]3CN(c4ccc5c(n4)NC(=O)CO5)C(=O)O3)c2)n1 [Example $171, 6-[(S)-5-(2-{3-[6-((R)-1-methyl-pyrrolidin-2-ylmethoxy)-pyridin-2-yl]-benzylamino}-ethyl)-2-oxo-oxazolidin-3-yl]-4H-pyrido[3,2-b][1,4]oxazin-3-one] | 1 µg/mL (≈ 1.79 µM) | 1 µg/mL (≈ 1.79 µM) | 1 µg/mL (≈ 1.79 µM) | 0.25 µg/mL (≈ 0.448 µM) |
| CNCCOc1cccc(-c2cccc(CNCC[C@H]3CN(c4ccc5c(n4)NC(=O)CO5)C(=O)O3)c2)c1 [Example 4, 6-[(S)-5-(2-{[3′-(2-methylamino-ethoxy)-biphenyl-3-ylmethyl]-amino}-ethyl)-2-oxo-oxazolidin-3-yl]-4H-pyrido[3,2-b][1,4]oxazin-3-one] | 2 µg/mL (≈ 3.86 µM) | 1 µg/mL (≈ 1.93 µM) | 2 µg/mL (≈ 3.86 µM) | 2 µg/mL (≈ 3.86 µM) |
| CN1CC(Oc2cccc(-c3cc(CNCC[C@H]4CN(c5ccc6c(n5)NC(=O)CO6)C(=O)O4)ccn3)n2)C1 [Example $185, 6-[(S)-5-(2-{[6′-(1-methyl-azetidin-3-yloxy)-[2,2′]bipyridinyl-4-ylmethyl]-amino}-ethyl)-2-oxo-oxazolidin-3-yl]-4H-pyrido[3,2-b][1,4]oxazin-3-one] | 0.5 µg/mL (≈ 0.941 µM) | 0.5 µg/mL (≈ 0.941 µM) | 1 µg/mL (≈ 1.88 µM) | 0.125 µg/mL (≈ 0.235 µM) |
| NCCOc1cncc(-c2ccnc(CNCC[C@H]3CN(c4ccc5c(n4)NC(=O)CO5)C(=O)O3)c2)c1 [Example $159, 6-[(S)-5-(2-{[5-(2-amino-ethoxy)-[3,4′]bipyridinyl-2′-ylmethyl]-amino}-ethyl)-2-oxo-oxazolidin-3-yl]-4H-pyrido[3,2-b][1,4]oxazin-3-one] | 8 µg/mL (≈ 15.8 µM) | 16 µg/mL (≈ 31.6 µM) | 4 µg/mL (≈ 7.91 µM) | 8 µg/mL (≈ 15.8 µM) |
| C[C@H]1C[C@H](Oc2cccc(-c3cccc(CNCC[C@H]4CN(c5ccc6c(n5)NC(=O)CO6)C(=O)O4)c3)n2)CN1 [Example $131, 6-[(S)-5-(2-{3-[6-((3S,5S)-5-methyl-pyrrolidin-3-yloxy)-pyridin-2-yl]-benzylamino}-ethyl)-2-oxo-oxazolidin-3-yl]-4H-pyrido[3,2-b][1,4]oxazin-3-one] | 1 µg/mL (≈ 1.84 µM) | 0.5 µg/mL (≈ 0.918 µM) | 0.5 µg/mL (≈ 0.918 µM) | 0.25 µg/mL (≈ 0.459 µM) |
| O=C1COc2ccc(N3C[C@H](CCNCc4cccc(-c5cccc(OC6CNC6)c5)c4)OC3=O)nc2N1 [Example $105, 6-[(S)-5-(2-{[3′-(azetidin-3-yloxy)-biphenyl-3-ylmethyl]-amino}-ethyl)-2-oxo-oxazolidin-3-yl]-4H-pyrido[3,2-b][1,4]oxazin-3-one] | 2 µg/mL (≈ 3.88 µM) | 2 µg/mL (≈ 3.88 µM) | 2 µg/mL (≈ 3.88 µM) | 2 µg/mL (≈ 3.88 µM) |
| CN(C)CCOc1cnnc(-c2cccc(CNCC[C@H]3CN(c4ccc5c(n4)NC(=O)CO5)C(=O)O3)c2)c1 [Example 10, 6-[(S)-5-(2-{3-[5-(2-dimethylamino-ethoxy)-pyridazin-3-yl]-benzylamino}-ethyl)-2-oxo-oxazolidin-3-yl]-4H-pyrido[3,2-b][1,4]oxazin-3-one] | 4 µg/mL (≈ 7.5 µM) | 2 µg/mL (≈ 3.75 µM) | 4 µg/mL (≈ 7.5 µM) | 8 µg/mL (≈ 15 µM) |
| CN1CC(Oc2cncc(-c3ccnc(CNCC[C@H]4CN(c5ccc6c(n5)NC(=O)CO6)C(=O)O4)c3)n2)C1 [Example $187, 6-{(S)-5-[2-({4-[6-(1-methyl-azetidin-3-yloxy)-pyrazin-2-yl]-pyridin-2-ylmethyl}-amino)-ethyl]-2-oxo-oxazolidin-3-yl}-4H-pyrido[3,2-b][1,4]oxazin-3-one] | 1 µg/mL (≈ 1.88 µM) | 0.5 µg/mL (≈ 0.939 µM) | 0.5 µg/mL (≈ 0.939 µM) | 0.5 µg/mL (≈ 0.939 µM) |
| NCCOc1nccc(-c2cccc(CNCC[C@H]3CN(c4ccc5c(n4)NC(=O)CO5)C(=O)O3)c2)n1 [Example $160, 6-[(S)-5-(2-{3-[2-(2-amino-ethoxy)-pyrimidin-4-yl]-benzylamino}-ethyl)-2-oxo-oxazolidin-3-yl]-4H-pyrido[3,2-b][1,4]oxazin-3-one] | 8 µg/mL (≈ 15.8 µM) | 2 µg/mL (≈ 3.96 µM) | 1 µg/mL (≈ 1.98 µM) | 4 µg/mL (≈ 7.91 µM) |
| O=C1COc2ccc(N3C[C@H](CCNCc4cccc(-c5cccc(OC[C@H]6CCNC6)n5)c4)OC3=O)nc2N1 [Example $144, 6-[(S)-2-oxo-5-(2-{3-[6-((S)-1-pyrrolidin-3-ylmethoxy)-pyridin-2-yl]-benzylamino}-ethyl)-oxazolidin-3-yl]-4H-pyrido[3,2-b][1,4]oxazin-3-one] | 4 µg/mL (≈ 7.34 µM) | 4 µg/mL (≈ 7.34 µM) | 1 µg/mL (≈ 1.84 µM) | 2 µg/mL (≈ 3.67 µM) |
| CN1CC(Oc2cccc(-c3cccc(CNCC[C@H]4CN(c5ccc6c(n5)NC(=O)CO6)C(=O)O4)c3)n2)C1 [Example $122, 6-[(S)-5-(2-{3-[6-(1-methyl-azetidin-3-yloxy)-pyridin-2-yl]-benzylamino}-ethyl)-2-oxo-oxazolidin-3-yl]-4H-pyrido[3,2-b][1,4]oxazin-3-one] | 0.5 µg/mL (≈ 0.942 µM) | 0.25 µg/mL (≈ 0.471 µM) | 0.5 µg/mL (≈ 0.942 µM) | 0.25 µg/mL (≈ 0.471 µM) |
| CN1CC[C@H]1COc1cccc(-c2cccc(CNCC[C@H]3CN(c4ccc5c(n4)NC(=O)CO5)C(=O)O3)c2)n1 [Example $123, 6-[(S)-5-(2-{3-[6-((S)-1-methyl-azetidin-2-ylmethoxy)-pyridin-2-yl]-benzylamino}-ethyl)-2-oxo-oxazolidin-3-yl]-4H-pyrido[3,2-b][1,4]oxazin-3-one] | 1 µg/mL (≈ 1.84 µM) | 1 µg/mL (≈ 1.84 µM) | 1 µg/mL (≈ 1.84 µM) | 0.25 µg/mL (≈ 0.459 µM) |
| NCCOc1ccnc(-c2cccc(CNCC[C@H]3CN(c4ccc5c(n4)NC(=O)CO5)C(=O)O3)c2)c1 [Example $154, 6-[(S)-5-(2-{3-[4-(2-amino-ethoxy)-pyridin-2-yl]-benzylamino}-ethyl)-2-oxo-oxazolidin-3-yl]-4H-pyrido[3,2-b][1,4]oxazin-3-one] | 4 µg/mL (≈ 7.93 µM) | 1 µg/mL (≈ 1.98 µM) | 0.5 µg/mL (≈ 0.991 µM) | 4 µg/mL (≈ 7.93 µM) |
| O=C1COc2ccc(N3C[C@H](CCNCc4cccc(-c5cccc(OCC6CNCCO6)n5)c4)OC3=O)nc2N1.O=CO (mixture of isomers) [Example $109, 6-[(S)-5-(2-{3-[6-((RS)-1-morpholin-2-ylmethoxy)-pyridin-2-yl]-benzylamino}-ethyl)-2-oxo-oxazolidin-3-yl]-4H-pyrido[3,2-b][1,4]oxazin-3-one formate] | 2 µg/mL | 1 µg/mL | 1 µg/mL | 0.5 µg/mL |
| O=C1COc2ccc(N3C[C@H](CCNCc4cccc(-c5cccc(OC[C@@H]6CCN6)c5)c4)OC3=O)nc2N1 [Example $101, 6-[(S)-5-(2-{[3′-((S)-1-azetidin-2-ylmethoxy)-biphenyl-3-ylmethyl]-amino}-ethyl)-2-oxo-oxazolidin-3-yl]-4H-pyrido[3,2-b][1,4]oxazin-3-one] | 2 µg/mL (≈ 3.78 µM) | 1 µg/mL (≈ 1.89 µM) | 1 µg/mL (≈ 1.89 µM) | 2 µg/mL (≈ 3.78 µM) |
| O=C1COc2ccc(N3C[C@H](CCNCc4cccc(-c5cc(O[C@H]6CCNC6)cnn5)c4)OC3=O)nc2N1 [Example $181, 6-[(S)-2-oxo-5-(2-{3-[5-((S)-pyrrolidin-3-yloxy)-pyridazin-3-yl]-benzylamino}-ethyl)-oxazolidin-3-yl]-4H-pyrido[3,2-b][1,4]oxazin-3-one] | > 16 µg/mL | 16 µg/mL (≈ 30.1 µM) | 4 µg/mL (≈ 7.52 µM) | 16 µg/mL (≈ 30.1 µM) |
| O=C1COc2ccc(N3C[C@H](CCNCc4cccc(-c5cccc(OC[C@H]6CCCN6)n5)c4)OC3=O)nc2N1 [Example $132, 6-[(S)-2-oxo-5-(2-{3-[6-((R)-1-pyrrolidin-2-ylmethoxy)-pyridin-2-yl]-benzylamino}-ethyl)-oxazolidin-3-yl]-4H-pyrido[3,2-b][1,4]oxazin-3-one] | 1 µg/mL (≈ 1.84 µM) | 0.5 µg/mL (≈ 0.918 µM) | 0.5 µg/mL (≈ 0.918 µM) | 0.25 µg/mL (≈ 0.459 µM) |
| C[C@H]1C[C@H](Oc2cccc(-c3cccc(CNCC[C@H]4CN(c5ccc6c(n5)NC(=O)CO6)C(=O)O4)c3)n2)CN1C [Example $175, 6-[(S)-5-(2-{3-[6-((3S,5S)-1,5-dimethyl-pyrrolidin-3-yloxy)-pyridin-2-yl]-benzylamino}-ethyl)-2-oxo-oxazolidin-3-yl]-4H-pyrido[3,2-b][1,4]oxazin-3-one] | 4 µg/mL (≈ 7.16 µM) | 2 µg/mL (≈ 3.58 µM) | 4 µg/mL (≈ 7.16 µM) | 0.25 µg/mL (≈ 0.448 µM) |
| O=C1COc2ccc(N3C[C@H](CCNCc4cccc(-c5cc(O[C@@H]6CCNC6)cnn5)c4)OC3=O)nc2N1 [Example $180, 6-[(S)-2-oxo-5-(2-{3-[5-((R)-pyrrolidin-3-yloxy)-pyridazin-3-yl]-benzylamino}-ethyl)-oxazolidin-3-yl]-4H-pyrido[3,2-b][1,4]oxazin-3-one] | > 16 µg/mL | 16 µg/mL (≈ 30.1 µM) | 4 µg/mL (≈ 7.52 µM) | > 16 µg/mL |
